Test results taken from patent US7199113B2, “Pharmaceutically active compounds and methods of use thereof” (priority 1998, dated 2007).

What was measured:
Format in all cases: biochemical
TF/FVIIa complex = molecular target: T1, TF/FVIIa complex (Homo sapiens, UniProt P08709+P13726, DEL276-295); assay: FVIIa activity assay (TF/VIIa catalytic activity toward S-2288); conditions: statement on Table 1 (FIG. 2(a))
T1 construct: proteolytic cleavage of the zymogen FVII to the active serine protease FVIIa; Truncated recombinant human tissue factor (e.g. composed of 243 amino acids) is expressed in E. coli; host or cells: E. coli (TF)
Experimental: Factor VIIa (FVIIa) activity, or the effect of TF and FVIIa interactions, can be determined in the presence of TF using FX and a small peptide (chromogenic) substrate or in the absence of TF using FX as substrate. Assays using FVIIa-specific chromogenic substrate S-2288 directly measures the effect of a compound on FVIIa catalytic activity. In this assay, 55 μl of TF/FVIIa complex (containing 10 nM TF and 10 nM VIIa) was first incubated with 5 μl of DMSO (or diluted DMSO) or compound, in a 96-well plate for 15 minutes at 37° C., then admixed with 20 μl of 8 mM S-2288. The reaction was incubated for 1–2 hours at 37° C. Absorbance at 405 nm was then measured after the reaction was quenched with 20 μl of 50% acetic acid. The percent inhibition of TF/VIIa activity was calculated from OD405 nm values in the absence and presence of a compound. […] Inhibition of TF/VIIa activity toward S-2288 by the two compounds would be expected if they were to bind to VIIa active site or prevent TF and VIIa from forming an active complex.

[1] = molecular target: Russell's viper venom (RVV) (Daboia siamensis, UniProt Q7LZ61)
Chain of Russell's viper venom (RVV) (Q7LZ61 whole entry, looked up): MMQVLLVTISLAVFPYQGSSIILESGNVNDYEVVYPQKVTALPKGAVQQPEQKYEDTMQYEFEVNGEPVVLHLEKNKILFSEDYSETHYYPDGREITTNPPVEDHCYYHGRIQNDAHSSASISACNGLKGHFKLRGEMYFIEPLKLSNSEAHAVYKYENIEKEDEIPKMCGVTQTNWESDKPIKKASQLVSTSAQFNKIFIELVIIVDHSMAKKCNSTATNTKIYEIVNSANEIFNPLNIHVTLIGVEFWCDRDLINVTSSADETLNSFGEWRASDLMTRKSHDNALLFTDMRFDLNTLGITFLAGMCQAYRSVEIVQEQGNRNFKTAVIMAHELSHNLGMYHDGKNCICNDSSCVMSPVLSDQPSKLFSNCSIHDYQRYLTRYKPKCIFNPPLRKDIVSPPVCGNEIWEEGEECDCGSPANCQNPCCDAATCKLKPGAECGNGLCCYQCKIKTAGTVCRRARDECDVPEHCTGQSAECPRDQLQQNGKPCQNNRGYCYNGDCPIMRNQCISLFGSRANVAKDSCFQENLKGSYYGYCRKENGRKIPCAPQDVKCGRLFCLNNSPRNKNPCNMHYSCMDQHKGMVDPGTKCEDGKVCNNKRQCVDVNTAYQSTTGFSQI

thrombin = molecular target: T2, thrombin (Homo sapiens, UniProt P00734); assay: Thrombin activity assay; conditions: statement on Table 1 (FIG. 2(a))
T2 construct: followed by addition of 10 μl of thrombin (20 nM); purchased Enzyme Research Laboratories Inc
Experimental: For thrombin activity assay, 55 μl of buffer was mixed with 5 μl of DMSO or compound, followed by addition of 10 μl of thrombin (20 nM). Mix and incubate at 37° C. for 10 minutes. Then 10 μl of substrate S-2238 was added and allowed to incubate at 37° C. for 15–20 minutes. Absorbance at 405 nm was then measured and the percent inhibition of thrombin activity was calculated from OD405 nm values in the absence and presence of a compound.

FIXa = molecular target: T3, FIXa (Homo sapiens, UniProt P00740); assay: FIXa-dependent FX activation assay; conditions: statement on Table 2 (FIG. 2(b))
T3 construct: FIX was first converted to FIXa by TF/VIIa in the absence of compound; purchased Enzyme Research Laboratories Inc
T3 sequence (P00740 227-461 limits assumed): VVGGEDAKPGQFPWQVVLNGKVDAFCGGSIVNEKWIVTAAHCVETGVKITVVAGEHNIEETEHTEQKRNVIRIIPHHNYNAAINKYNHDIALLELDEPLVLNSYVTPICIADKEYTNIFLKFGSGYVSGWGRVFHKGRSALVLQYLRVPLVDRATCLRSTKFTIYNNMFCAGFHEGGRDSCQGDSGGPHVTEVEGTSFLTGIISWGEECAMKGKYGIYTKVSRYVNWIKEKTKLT
T3 sequence (P00740 47-191 limits assumed): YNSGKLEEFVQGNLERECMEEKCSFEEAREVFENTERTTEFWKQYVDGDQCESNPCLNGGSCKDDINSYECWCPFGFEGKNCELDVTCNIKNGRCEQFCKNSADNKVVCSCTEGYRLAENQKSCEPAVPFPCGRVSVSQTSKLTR
Experimental: FIX was first converted to FIXa by TF/VIIa in the absence of compound. This was done in a 50-ml tube. After incubating TF/VIIa (0.67 nM, 10 ml) at 37° C. for 15 minutes, FIX (300 nM, 0.123 ml) was added and incubated at 37° C. for 30 minutes. Then 1.54 ml of EDTA (400 mM) was added to stop the FIX activation. Then 65 μl of the above FIXa sample was transferred into wells of a 96-well plate that contain 5 μl of diluted DMSO (or buffer) or compound (in diluted DMSO or buffer). Ten μl of FX (1000 nM), 10 μl of polylysine (300 nM), and 10 μl of Spectrozyme FXa (5 mM) were added to each well and incubate at 37° C. until an OD405 nm value of ˜0.8 was reached. Absorbance at 405 nm was then measured following addition of 20 μl of 50% acetic acid. The percent inhibition of FIXa activity was calculated from OD405 nm values in the absence and presence of a compound.

[2] = test system: human plasma (TF-initiated clotting); assay: Prothrombin time (PT) assay; conditions: lipidated recombinant tissue factor 1–3 nM, statement on FIG. 4
Experimental: Clot times are generally measured in seconds. Preferred PT assays are typically performed by adding a suitable amount (e.g. about 1 to 3 nM) of lipidated tissue factor to an assay solution that includes conventionally citrated plasma. The PT assay measures TF-mediated blood plasma clot time and is preferably performed by conducting the following steps: • 1) providing about 0.1 ml of citrated human plasma in a suitable assay solution, and combining same with between from about 0.5 μl to 10 μl of at least one compound to be tested (optionally dissolved in vehicle such as water or dimethylsulfoxide (DMSO)) and incubating same at room temperature for about 3 to 10 minutes, • 2) admixing into the solution from between about 0.2 ml (ca. 1–3 nM recombinant human tissue factor) and about 5–10 mM of calcium to initiate plasma clotting; and • 3) measuring the plasma clot time to determine the prothrombin clot time (PT).
The PT assay was performed at 37° C. with an Electra 800 (Medical Automation, Inc.). The PT reaction was initiated by adding 0.2 ml of lipidated recombinant human tissue factor into 0.105 ml of human plasma (Ci-Trol Control Level I, from VWR, Cat. No. 68100-336). […] Following mixing the compound (or DMSO) with plasma (Ci-Trol), 0.2 ml of lipidated reocombinant tissue factor (1–3 nM) is added to the plasma and clotting times were measured within 10 min.

SMILES: O=P(O)(O)C(CNc1cccc(O)c1)P(=O)(O)O [Compound 1, 1-(bisphosponate)-2-amino(3-hydroxyphenyl)ethyl]
- effect on TF/VIIa catalytic activity toward S-2288 (TF/FVIIa complex): do not have significant effect
- inhibition of RVV-dependent FX activation [1]: do not inhibit RVV catalytic activity
- inhibition of thrombin activity (thrombin): do not inhibit thrombin activity
- inhibition of FIXa activity (FIXa-dependent FX activation) (FIXa): do not inhibit FIXa activity
- effect on TF-initiated PT times (clotting time) [2]: prolonged TF-initiated PT times significantly

SMILES: O=P(O)(O)C(CNc1ccc(O)cc1)P(=O)(O)O [Compound 2]
- effect on TF/VIIa catalytic activity toward S-2288 (TF/FVIIa complex): do not have significant effect
- inhibition of RVV-dependent FX activation [1]: do not inhibit RVV catalytic activity
- inhibition of thrombin activity (thrombin): do not inhibit thrombin activity
- inhibition of FIXa activity (FIXa-dependent FX activation) (FIXa): do not inhibit FIXa activity
- effect on TF-initiated PT times (clotting time) [2]: prolonged TF-initiated PT times significantly
